From patent US9968570B2, “Compositions and methods for treating cancer” (Chemo-Enhanced LLC, priority 2013, dated 2018)

Legend:
CaOV3 cells = test: Confocal microscopy of C6-NBD ceramide entry into ovarian cancer cells; type: cell-based, human; settings: for effect on C6 ceramide entry into the cells: CaOV3 cells pretreated with inhibitor, C6-NBD-ceramide; for effect on polarized entry of C6 ceramide: CaOV3 cells pretreated 1 h, then C6-NBD
Method: (A and C) CaOV3 cells were cultured in 8-well chamber slides and treated with C6-NBD ceramide (6 μg/ml). (B) The cells were fixed with formaldehyde at various times following treatment or were treated with the indicated doses of C6-NBD-ceramide, with or without fixation. The cells were processed and observed under a confocal microscope.
CaOV3 cells were cultured in 8-well chamber slides and treated with or without (A) a lipid raft/caveolae inhibitor or with (B) water channel inhibitors, CuSO4 or NiCl2. The cells were fixed with formaldehyde, processed and observed under a confocal microscope.
(A) CaOV3 cells were cultured in 8-well chamber slides, pretreated with taxol or doxorubicin for 1 h and then treated with C6-NBD-ceramide for 5 or 15 min. The cells were fixed with formaldehyde and processed for confocal microscopy. (B) The cells were pretreated with taxol and then C6-NBD-ceramide and processed for confocal microscopy without fixation.
The cells were plated in eight-well chamber slides (Lab-Tek; Nalge Nunc International, Naperville, Ill., USA) and treated with various reagents, including C6-NBD ceramide, taxol and CuSO4. Next, the cells were either left untreated or were fixed for 20 min in fresh 4% paraformaldehyde-PBS. The cell nuclei were also stained with Hoechst (1 μg/ml in PBS) for 10 min. The slides were mounted with anti-fade (Life Technologies, Grand Island, N.Y., USA) and stored in the dark until viewing. The samples were observed under a confocal microscope and images were captured by Zen 2009 Light Edition (Carl Zeiss AG, Oberkochen, Germany).

[1] = system: L3.6 pancreatic cancer cells; test: MTT cell viability assay, C6-Ceramide / chemo agents / pathway inhibitors; type: cell-based, human; settings: 48 h; for cell death: MTT; for L3.6 cell viability, agent alone: LY 294002 1 μM, rapamycin 100 nM, U0126 1 μg/ml, Gemcitabine 1 μg/ml
Method: L3.6 pancreatic cancer cells, cultured either in basic DMEM medium or with 10% FBS, were treated with indicated doses of Taxol in the presence or absence of C6 Ceramide (10 μg/ml) for 48 hours, cell viability was detected by MTT assay (FIGS. 4A and B). L3.6 cells, cultured either in basic DMEM medium or with 10% FBS, were treated with indicated dose of C6 Ceramide in the presence or absence of Taxol (1.5 μg/ml) for 48 hours, cell viability was detected by MTT assay as described (FIGS. 4C and D). Mitomycin C (10 μg/ml) was always present in the media to prevent cell proliferation from occurring. The data represent the mean±SD of at least triplicate experiments. *P<0.05 versus group without C6 Ceramide presents (FIGS. 4A and B). **P<0.05 versus group without Taxol presents (C and D).
(§1) Mitomycin C (10 ug/ml) was always present in the media to prevent cell proliferation from occurring.
FIG. 9 depicts data showing the effect of survival pathway inhibitors on cytotoxicity of Taxol and Gemcitabine in L3.6 pancreatic tumor cells. L3.6 cells were pretreated with various inhibitors including PI3K/AKT inhibitor LY 294002 (LY, 1 μM), mTORC1 inhibitor rapamycin (100 nM), MEK/ERK inhibitor U0126 (1 μg/ml), alone or in the presence of Taxol (1.5 μg/ml) or Gemcitabine (1 μg/ml) for 48 hours, with cell death detected 48 hours later (FIG. 9, left). Effects of various inhibitors as mentioned above on AKT/mTORC1 and ERK activation were also examined by Western blots using commercially available antibodies (FIG. 9, right). *P<0.05 versus group without C6 Ceramide presents. […] In FIG. 9, left panel, the DMSO=left bar; LY294002=second left bar; U0126=middle bar; Rapamycin=second right bar; and LY+U0126=right bar.
(§2) Cell viability was measured by the 3-(4,5-dimethylthiazol-2-yl)-2,5-diphenyltetrazolium bromide (MTT) method, as described previously (Cao, C., et al. Sci Signal, 2: ra17, 2009; and Vanhaesebroeck, B., et al. Annu Rev Biochem, 70: 535-602, 2001). Briefly, the cells were collected and seeded in 96-well plate at a density of 2×10^5 cells/cm^2. Different seeding densities were optimized at the beginning of the experiments. After overnight incubation cells were exposed to fresh medium containing indicated reagents at 37° C. After incubation for different time periods, 20 μl of MTT tetrazolium (Sigma, St. Louis, Mo.) salt dissolved in Hank's balanced salt solution at a concentration of 5 mg/ml was added to each well and incubated in a CO2 incubator for an additional 4 hours. The medium was subsequently aspirated from each well and 150 μl of DMSO (Sigma, St. Louis, Mo.) was added to dissolve formazan crystals and the absorbance of each well was obtained using a Dynatech MR5000 plate reader at a test wavelength of 490 nm with a reference wavelength of 630 nm.

[2] = system: L3.6 pancreatic cancer cells; test: as above; type: cell-based, human; settings: L3.6 (FIG. 6A), basic DMEM; Gemcitabine 3 μg/ml, Taxol 15 ug/ml, C6-Ceramide 10 ug/ml, Cetuximab 10 ug/ml
L3.6 pancreatic cells = type: in vivo; settings: for tumor volume and mouse survival: Taxol 3 mg/kg, C6-Ceramide 10 mg/kg, I.P. 3x/wk, vs control treatment group
Method: SCID/Beige/Taconic nude male mice, 22-25 g, 6-8 weeks old were ear tagged and randomized into 4 different groups (Control, Ceramide, Paclitaxel, Ceramide+Paclitaxel) of 5 mice each prior to inoculation s.c. with 2×10^6 L3.6 cells in a volume 0.1 ml into the internal surface of the right thigh. Treatment was started 4 days after L3.6 cell injection with thrice weekly (3×/wk) intraperitoneal (I.P.) injections of Paclitaxel 3.0 mg/kg with or without C6-Ceramide (10 mg/kg) for 2 weeks. Mice survival (A and C), tumor volume (in cm^3) (B), mice body weight (in grams) were recorded (E). Average rate of tumor development was calculated by total tumor volume dividing by total number of days monitored (D).
FIG. 7A and FIG. 7D: SCID/Beige/Taconic nude male mice, 22-25 g, 6-8 weeks old were ear tagged and randomized into 4 different groups (Control, Ceramide, Gemcitabine, Ceramide+Gemcitabine) combining 5 mice each prior to inoculation s.c. with 2×10^6 L3.6 cells in a volume 0.1 ml into the internal surface of the right thigh. Treatment was started 4 days after L3.6 cell injection with thrice weekly (3×/wk) intraperitoneal (I.P.) injections of Gemcitabine (two doses: […]) with or without C6-Ceramide ([…]) for 2 weeks. […] Mice survival (A, B and E) and tumor volume (in cm^3) (C and D) were recorded (E). In (E), the left bar indicates treatment without C6, and the right bar indicates treatment with C6.
SCID/Beige/Taconic male mice were inoculated with 2×10^6 L3.6 pancreatic cells and begun treatment 4 days post tumor implant with thrice weekly (3×/wk) intraperitoneal (I.P.) injections of Paclitaxel (Taxol) 3.0 mg/kg or Gemcitabine (Gem) 10 mg/kg—after treatment and were autopsied when near death (as per IRB committee). Mouse survival, tumor volume (in cm^3), and body weight (in grams) were recorded. Average rate of tumor development was calculated by dividing total tumor volume by total number of days monitored.

AKT/mTORC1 and ERK = test: Western blot of AKT/mTORC1 and ERK activation in L3.6 cells; type: cell-based, human; settings: 2-6 h, Gemcitabine 1 μg/ml, Taxol 1.5 μg/ml, C6 Ceramide 10 μg/ml
Excerpt: Antibody binding was detected with the enhanced chemiluminescence (ECL) detection system (Amersham Biosciences, Piscataway, N.J.).

MIA-PaCa2 (MIA) cells = test: MTT cell viability assay, C6-Ceramide with chemo agents; type: cell-based, human; settings: MIA cells (FIG. 6C), basic DMEM; Gemcitabine 3 μg/ml, Taxol 15 ug/ml, C6-Ceramide 10 ug/ml, Cetuximab 10 ug/ml
Method: as §1, §2

Panc-1 = test: as above; type: cell-based, human; settings: Panc-1 (FIG. 6B), basic DMEM; Gemcitabine 3 μg/ml, Taxol 15 ug/ml, C6-Ceramide 10 ug/ml, Cetuximab 10 ug/ml
Method: as §1, §2

[3] = L3.6, basic DMEM medium, Taxol 1.5 ug/ml, C6-ceramide 10 ug/ml
[4] = L3.6 cultured in 10% FBS, C6-Ceramide 2.5 μg/ml, Taxol 1.5 μg/ml

Row | Structure (SMILES) | effect on C6 ceramide entry into the cells (CaOV3 cells) | cell death [2] | cell death (MIA-PaCa2 (MIA) cells) | cell death (Panc-1) | L3.6 cell viability, agent alone ([1]; Taxol 1.5 μg/ml) | also measured
1 | O=S(=O)([O-])[O-].[Cu+2] [CuSO4] | inhibits C6 ceramide entry into the cells |  |  |  |  | 
2 | CCCCC[C@@H](O)[C@H]1C(=O)O[C@H](C)[C@@H](O)/C=C/C=C/C=C/C=C/C=C(\C)[C@@H](O)C[C@H](O)C[C@H](O)C[C@H](O)C[C@H](O)C[C@H](O)C[C@@H]1O [Filipin] | inhibited the C6 ceramide entry into the CaOV3 cells |  |  |  |  | 
3 | CCCCCCCCCCCCC/C=C/[C@@H](O)[C@H](CO)NC(=O)CCCCC [Fraction C6-ceramide, N-hexanoyl-D-sphingosine] |  | None of Gemcitabine (3 μg/ml), Taxol (15 ug/ml) or C6-Ceramide (10 ug/ml) alone had a significant effect | None of Gemcitabine (3 μg/ml), Taxol (15 ug/ml) or C6-Ceramide (10 ug/ml) alone had a significant effect | None of Gemcitabine (3 μg/ml), Taxol (15 ug/ml) or C6-Ceramide (10 ug/ml) alone had a significant effect |  | cell death [1, 3]: no effect; cell death [1, 4]: neither of these two alone had any measurable effect; tumor volume and mouse survival (L3.6 pancreatic cells): minimal effects on tumor volume and mouse survival; AKT/mTORC1 and ERK activation (AKT/mTORC1 and ERK): moderate inhibition
4 | N#CC(=C(N)Sc1ccccc1N)C(C#N)=C(N)Sc1ccccc1N [Fraction U0126, 1,4-diamino-2,3-dicyano-1,4-bis[2-aminophenylthio]butadiene] |  |  |  |  | little or no significant effect | 
5 | Nc1ccn([C@@H]2O[C@H](CO)[C@@H](O)C2(F)F)c(=O)n1 [Gemcitabine, gemcitabine] |  | None of Gemcitabine (3 μg/ml), Taxol (15 ug/ml) or C6-Ceramide (10 ug/ml) alone had a significant effect | None of Gemcitabine (3 μg/ml), Taxol (15 ug/ml) or C6-Ceramide (10 ug/ml) alone had a significant effect | None of Gemcitabine (3 μg/ml), Taxol (15 ug/ml) or C6-Ceramide (10 ug/ml) alone had a significant effect | little or no significant effect | survival and tumor growth (L3.6 pancreatic cells; Gemcitabine 5 mg/kg and 10 mg/kg, C6-ceramide 10 mg/kg, I.P. 3x/wk for 2 weeks): limited effect on survival and tumor growth; AKT/mTORC1 and ERK activation (AKT/mTORC1 and ERK): no effect
6 | [Cl][Ni][Cl] [NiCl2] | does not |  |  |  |  | 
7 | CC(=O)O[C@H]1C(=O)[C@@]2(C)[C@H]([C@H](OC(=O)c3ccccc3)[C@]3(O)C[C@H](OC(=O)[C@H](O)[C@@H](NC(=O)c4ccccc4)c4ccccc4)C(C)=C1C3(C)C)[C@]1(OC(C)=O)CO[C@@H]1C[C@@H]2O [Taxol, paclitaxel] |  | None of Gemcitabine (3 μg/ml), Taxol (15 ug/ml) or C6-Ceramide (10 ug/ml) alone had a significant effect | None of Gemcitabine (3 μg/ml), Taxol (15 ug/ml) or C6-Ceramide (10 ug/ml) alone had a significant effect | None of Gemcitabine (3 μg/ml), Taxol (15 ug/ml) or C6-Ceramide (10 ug/ml) alone had a significant effect | little or no significant effect | cell death [1, 3]: 30%; cell death [1, 4]: neither of these two alone had any measurable effect; tumor volume and mouse survival (L3.6 pancreatic cells): minimal effects on tumor volume and mouse survival; effect on polarized entry of C6 ceramide (CaOV3 cells): disrupted the polarized pattern of C6 entry
8 | COc1cccc2c1C(=O)c1c(O)c3c(c(O)c1C2=O)C[C@@](O)(C(=O)CO)C[C@@H]3O[C@H]1C[C@H](N)[C@H](O)[C@H](C)O1 [doxorubicin] |  |  |  |  |  | effect on polarized entry of C6 ceramide (CaOV3 cells): had no such effect
